Source: article PMC7312527 (International Journal of Molecular Sciences, 2020)

Experiments:
[1] = in vitro; type: cell-based; conditions: human, human hepatic stellate cells (HSCs), HSCs, 24 h, read-out: hepatotoxicity (MTT; cell viability as percentage of control)
Protocol: Human hepatic stellate cells (HSCs, Sciencell) were cultured in the Stellate Cell Medium (Sciencell) with 1% Stellate Cell Growth Supplement, 2% fetal bovine serum (FBS), and 1% penicillin/streptomycin solution (Sciencell). Cells were kept in the incubator (37 °C, 5% CO2). At the beginning of the experiment, cells were seeded in the 96-well plates at a density of 5 × 10^3 cells per well and incubated in the incubator for 24 h. After the incubation period, medium was removed and HSCs were exposed to 100 µL of the compound solutions over a range of concentrations (10–0.1 µM) or nothing but culture medium (blank control). Cells were further incubated for 24 h. At the end, medium was removed, cells were washed with PBS, and 50 µL of the MTT solution (0.75 mg/mL) was added to the cells. Plates were kept in the dark for 2 h at 37 °C. Finally, the MTT solution was removed and 100 µL of DMSO was added to each well. Plates with DMSO were kept at room temperature for 10 min. After this time, 5 µL of Sorensen Buffer was added to each well. Plates were swayed and the absorbance was measured at a wavelength of 570 nm by a microplate reader (Synergy H1, BioTek). The cell viability was expressed as a percentage of the control values (blank control).

[2] = system: SH-SY5Y cells; experiment: Neuroprotection against rotenone/oligomycin A, pre-incubation (MTT); type: cell-based, human; conditions: R/O mixture, 0.0001 µM
[3] = system: SH-SY5Y cells; experiment: Neuroprotection against oxidative stress induced by H2O2 (MTT); type: cell-based, human; conditions: H2O2 100 µM
[4] = target: AChE from electric eel (Electrophorus electricus, UniProt O42275); experiment: biochemical
[5] = system: female mice Balb/c; experiment: In vivo acute oral toxicity (OECD 423)
Protocol: (§1) Compound 3c was given orally (by gavage) in fixed doses, 5, 50, 300, or 2000 mg/kg body weight, at each stage of the study. Compound 3c was administered at an initial dose of 300 mg/kg, as its toxicity was unknown. According to the graph from the Organization for Economic Cooperation and Development (OCED) 423 guideline, six test stages might be performed. Three animals (female mice Balb/c) take part in each stage. The number of stages depends on the deaths of mice, which is the final test parameter. Results allowed for the classification of compound 3c into a Globally Harmonized Classification System for Chemical Substances and Mixtures (GHS) category. Moreover, the LD50 cut-off values were determined. The research was carried out on the basis of the agreement of the Local Ethical Committee for animal testing in Łódź No. 56/115 ŁB/2018. Compound 3c was administrated in a first dose of 300 mg/kg of body weight.
(§2) The testing protocol is as follows: After the initial dose of 300 mg/kg body weight, if 2–3 mice die, the compound is given at a lower dose (50 mg/kg). The lowest dose (5 mg/kg) is administrated if 2–3 animals die after the 50 mg/kg dose. If there are no deaths or only one mouse dies after administration of the 300 mg/kg dose, the compound is given again at the same dose (300 mg/kg). If there are no deaths again, the highest dose (2000 mg/kg) is given. After each dose, the mice are observed for 14 days. […]

[6] = In vivo acute oral toxicity (OECD 423); conditions: female, Balb/c, mouse, in vivo, mice, read-out: LD50 cut-off values
Protocol: as §1, §2

Chain of AChE from electric eel (O42275 24-633): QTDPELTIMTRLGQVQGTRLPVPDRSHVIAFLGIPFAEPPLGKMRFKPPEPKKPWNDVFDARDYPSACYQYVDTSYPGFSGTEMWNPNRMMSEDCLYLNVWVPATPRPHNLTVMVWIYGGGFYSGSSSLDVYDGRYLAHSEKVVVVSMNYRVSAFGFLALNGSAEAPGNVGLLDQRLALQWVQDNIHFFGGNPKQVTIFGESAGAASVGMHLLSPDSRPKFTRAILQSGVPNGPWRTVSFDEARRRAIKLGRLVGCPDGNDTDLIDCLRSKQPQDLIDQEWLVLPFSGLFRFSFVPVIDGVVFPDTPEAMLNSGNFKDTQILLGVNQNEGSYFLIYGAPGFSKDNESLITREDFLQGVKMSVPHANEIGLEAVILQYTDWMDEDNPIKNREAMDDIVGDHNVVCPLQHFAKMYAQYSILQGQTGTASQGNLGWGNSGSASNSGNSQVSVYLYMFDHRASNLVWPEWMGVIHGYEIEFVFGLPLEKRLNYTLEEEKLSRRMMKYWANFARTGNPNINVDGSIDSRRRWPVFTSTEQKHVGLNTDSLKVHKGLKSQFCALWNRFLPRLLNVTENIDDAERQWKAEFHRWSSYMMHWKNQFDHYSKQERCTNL

O=C(NCCCCNc1c2c(nc3ccccc13)CCCC2)c1cc(Cl)cc(Cl)c1 [Compound 3c]
viability at 24 h, 0.1 µM ([1]; 0.1 µM): 99.9%
viability at 24 h, 1 µM ([1]; 1 µM): 95.4%
viability at 24 h, 10 µM ([1]; 10 µM): 87.4%
neuroprotection [2]: 2.84%
neuroprotection ([3]; compound 0.01 µM): 46.17%
neuroprotection ([3]; compound 0.1 µM): 36.48%
neuroprotection ([3]; compound 1 µM): 0%
neuroprotection ([3]; compound 10 µM): 0%
Selectivity for AChE ([4]; IC50 (BuChE)/IC50(AChE)): 4.864
IC50 ([4]; means ± SD of three independent experiments, read-out: EeAChE IC50 ± SD): 25 ± 3 nM
GHS (Globally Harmonized System) Category [5]: 4
deaths ([5]; 300 mg/kg, first and second stages): did not cause any deaths
deaths ([5]; 2000 mg/kg, first stage): all three mice died
LD50 at 14 days [6]: 500 mg/kg
